Test system: human macrophage cell-line MonoMac-6 (MM6)
Assay: PMA-induced release of tumor necrosis factor (TNF) from MonoMac-6 cells, Human TNF-α ELISA
Assay type: cell-based
Settings: n=2; for TNF concentration as % of the untreated PMA-stimulated control MM6 cells: 48 hours, PMA 10 ng/mL five hours, mean; for mean TNF concentration after PMA stimulation: 48 hours treatment, then PMA 10 ng/mL five hours, untreated control 75.3 pg/mL
Method: Cells from the human macrophage cell-line MonoMac-6 (MM6) (Ziegler-Heitbrock et al, Int. J. Cancer, 41, 456 (1988)) were cultured (37° C./5% CO2) in RPMI-1640 medium supplemented with 1 mM sodium pyruvate, 1× nonessential amino acids, 10 μg/mL insulin, 1 mM oxalacetic acid, 100 units/mL penicillin, 100 μg/mL streptomycin and 10% (v/v) fetal bovine serum. At the start of the experiment, MM6 cells were seeded in 96-well plates at a density of 1×10^5 cells/mL (200 μL per well). The MM6 cells were treated (incubation conditions as above) with indicated final concentrations of the test drugs for 48 hours prior stimulation with phorbol-12-myristate-13-acetate (PMA; Sigma-Aldrich, Stockholm, Sweden) followed by measurement of PMA-induced release of tumor necrosis factor (TNF) (see below for details). To stimulate formation and release of TNF, the MM6 cells were incubated (37° C./5% CO2) for five hours (in RPMI-1640 with 10% fetal bovine serum with supplements as above) with PMA at a final concentration of 10 ng/mL. After spinning down the cells after the different MM6 incubations/stimulations (see above and below), the concentrations of TNF in the supernatants were quantitated using Human TNF-α ELISA Kit from Mabtech (Nacka, Sweden) according to instructions supplied by the manufacturer. Stock solutions of pemirolast (potassium salt; purchased from American Custom Chemicals Corporation, San Diego, USA) and losartan (potassium salt; purchased from AK Scientific, Inc., Mountain View, Calif., USA) were made in sterile saline. […] However, after five hours of PMA stimulation, the mean TNF concentration in the supernatants of untreated MM6 cells was 75.3 pg/mL (n=2).

[1] = 0.1 μM of each drug (alone or in combination)
[2] = 1 μM of each drug (alone or in combination)
[3] = 10 μM of each drug (alone or in combination)
[4] = 100 μM of each drug (alone or in combination)

## CCCCc1nc(Cl)c(CO)n1Cc1ccc(-c2ccccc2-c2nn[nH]n2)cc1 [losartan]
[1]
  TNF concentration as % of the untreated PMA-stimulated control MM6 cells: 98%
0.1 μM test drug
  mean TNF concentration after PMA stimulation: 73.8 pg/mL
[2]
  TNF concentration as % of the untreated PMA-stimulated control MM6 cells: 90%
1 μM test drug
  mean TNF concentration after PMA stimulation: 67.5 pg/mL
[3]
  TNF concentration as % of the untreated PMA-stimulated control MM6 cells: 99%
10 μM test drug
  mean TNF concentration after PMA stimulation: 74.5 pg/mL
[4]
  TNF concentration as % of the untreated PMA-stimulated control MM6 cells: 119%
100 μM test drug
  mean TNF concentration after PMA stimulation: 89.8 pg/mL

## Cc1cccn2c(=O)c(-c3nnn[nH]3)cnc12 [pemirolast]
[1]
  TNF concentration as % of the untreated PMA-stimulated control MM6 cells: 88%
0.1 μM test drug
  mean TNF concentration after PMA stimulation: 66.5 pg/mL
[2]
  TNF concentration as % of the untreated PMA-stimulated control MM6 cells: 85%
1 μM test drug
  mean TNF concentration after PMA stimulation: 64.0 pg/mL
[3]
  TNF concentration as % of the untreated PMA-stimulated control MM6 cells: 72%
10 μM test drug
  mean TNF concentration after PMA stimulation: 54.3 pg/mL
[4]
  TNF concentration as % of the untreated PMA-stimulated control MM6 cells: 96%
100 μM test drug
  mean TNF concentration after PMA stimulation: 72.2 pg/mL
